Laboratory results from patent publication US11096987B2, “Mutant peptides and methods of treating subjects using the same” (BIOINCEPT, LLC, priority 2015, dated 2021).
Like-named read-outs stand apart in the source and are kept apart here.

Key:
[1] = tested on: CD19 (B cell) monocytes; assay: FITC-PIF assay, binding to CD19 monocytes
[2] = tested on: Jurkat T-cells; assay: K+ flux inhibition in Jurkat T-cells; assay type: cell-based; settings: compared with control
Source text: (§1) (FIG. 2). […] (FIG. 3). […] (FIG. 4). […] Thus dependent on the target Kv1.3 or IDE the mutated PIF-1 can have a target-specific effect which can also translate to diverse biological activity.

[3] = tested on: CD11b (macrophage) monocytes; assay: FITC-PIF assay, binding to CD11b monocytes; settings: for CD11b %: FITC-PIF binding
[4] = tested on: let-7; assay: let-7 microRNA levels in microglia and neural cell lines; assay type: cell-based
Source text: as §1
This direct effect on target cells was confirmed by targeting microglia and neuron cell line (Neu) in vitro (FIGS. 5C, D). […] Phosphorylated CREB in turn facilitates expression of (Gap43, Bdnf and Bcl2) (FIG. 5F) that play important role regulating neuronal growth, survival, which is dependent on TLR4 signaling (FIG. 5G). PKA/PKC was reported to impart TBI (Lucke-Wold, Logsdon et al. 2014; Zohar, Lavy et al. 2011; Titus 2013). […] For currently used neuroprotective drugs ability to reach the brain in both intact and damaged settings is difficult. Therefore frequently drugs in order to pass the BBB they have to be very small, or have to be added to agents that would favor passage.

[5] = molecular target: insulin degrading enzyme (IDE) (Homo sapiens, UniProt P14735); assay: Fluorescent based thermal shift assay; assay type: binding; settings: ligands 10 uM, receptor 1 uM
Experimental: Concentrations of the ligands 10 uM and 1 uM of the receptor, buffer consisting of 10 mM HEPES-HCL, 150 mM […], and protein folding sensitive dye SyO 1:1000.
as §1

| Tm / thermal shift compared to PIF(wt) ([5]; listed as PIF(mutant-3)) | Tm / thermal shift compared to PIF(wt) ([5]; listed as mut-3) | Tm / thermal shift compared to PIF(wt) ([5]; listed as PIF(mutant-1)) | Tm / thermal shift compared to PIF(wt) ([5]; listed as mut-1) | Sequence | binding affinity to CD19 monocytes compared to natural PIF [1] | CD19 % ([1]; FITC-PIF binding) [%] | effect on K+ flux [2] | binding affinity to CD11b monocytes compared to natural PIF [3] | CD11b % [3] [%] | effect on let-7 microRNA [4] | CD19 % [1] [%] |
| --- | --- | --- | --- | --- | --- | --- | --- | --- | --- | --- | --- |
| increased Tm | activity was decreased | – | – | MVRGKPGSANKPSDD [SEQ ID NO: 8, PIF mutant] | higher binding affinity | 5.60 | no effect | higher binding affinity | 35.48 | lack of effect | – |
| – | – | decreased Tm | reduced thermal shift | MVRIKEGSANKPSDD [SEQ ID NO: 7, PIF mutant] | – | – | no effect | – | – | – | – |
| – | – | – | – | AVRIKPGSANKPSDD [SEQ ID NO: 10] | higher binding affinity | – | – | higher binding affinity | 33.54 | – | 5.90 |
